Laboratory results reported in publication PMC7960611, “A phase 1 study of crenigacestat (LY3039478), the Notch inhibitor, in Japanese patients with advanced solid tumors” (Investigational New Drugs, 2020).
Several values for one entry are separate records, joined by “and”; a condition that tells them apart may be missing. Equal entries are not always repeated. Entries after “also recorded” stand apart in the source; their conditions may differ. Where two headings read alike, the source gives them in different places.

Assays:
[1] = test system: Japanese patients with advanced solid tumors; experiment: Safety assessment: adverse events (CTCAE v 4.0), DLT/DLET, phase 1 dose escalation; type: in vivo, human
Procedure: The study consisted of 2 dose levels of crenigacestat (25 mg and 50 mg), administered orally TIW prior to a meal. A cycle was defined as 28 days. Patients were admitted to the investigational site for 4 weeks through the entire first cycle but were discharged and managed on an outpatient basis on or after day 15 upon investigator discretion. The planned duration of treatment was not fixed. Treatment continued until disease progression, development of unacceptable toxicity, or any other discontinuation criteria were met.
Data were evaluated on an ongoing basis until the tolerability of crenigacestat for 50 mg was confirmed. Safety data, in particular adverse events (AEs), were the primary criteria for dose escalation. Dose escalation was driven for each treatment combination using the 3 + 3 method. Transition of dose level (from 25 to 50 mg) proceeded if the frequency of dose-limiting toxicity (DLT) observed in cycle 1 was <33% of patients in the first dose level (25 mg). For DLTs, an evaluable patient was defined as a patient who received ≥75% of the planned dose in cycle 1 or a patient who experienced DLT in cycle 1.
Adverse events were collected throughout the study and coded using Medical Dictionary for Regulatory Activities (MedDRA) terms (Version 22.0). […]

[2] = test system: advanced solid tumors in Japanese patients; experiment: Efficacy assessment: tumor response (RECIST v1.1); type: in vivo, human
Procedure: Tumor response, including overall response rate, was measured using RECIST v1.1 [12] or the Response Assessment in Neuro-Oncology criteria for glioblastoma. Patient’s full extent of disease was also assessed via evaluation of performance status (ECOG). Where applicable, tumor measurements were performed by positron emission tomography response criteria of the European Organization for Research and Treatment of Cancer, as well as evaluation of tumor markers. To confirm objective responses, all lesions were radiologically assessed and the same radiologic method used at baseline and for the initial response determination was repeated at least 4 weeks following the initial observation of an objective response.

[3] = Pharmacokinetics: plasma concentrations by LC-MS/MS, noncompartmental analysis; type: in vivo; conditions: human; for AUC(0-inf) / Cmax / AUC(0-t): geometric mean (%CV); for AUC(0-t): read-out: AUC0–48
Procedure: All patients who received at least 1 dose of the study drug, and had sufficient samples collected, were included in the PK analysis. […] Plasma concentrations of crenigacestat were quantified using a validated liquid chromatography-tandem mass spectrometry (LC-MS/MS) assay. The PK parameters for crenigacestat were calculated by standard noncompartmental methods of analysis. The primary PK parameters for analysis were maximum plasma concentration (Cmax) and area under the plasma concentration-time curve (AUC) from time zero to infinity or over 1 dosing interval at steady state of crenigacestat.

[4] = test system: non-Japanese patients with advanced or metastatic cancers; parameters: method as in PMID 30060061; conditions: TIW during a 28-day cycle; cited from earlier work
[5] = po, 25 mg, Day 1 (Dose 1), 25 mg oral TIW
[6] = po, 25 mg, Day 22 (Dose 10), 25 mg oral TIW
[7] = po, 50 mg, Day 1 (Dose 1), 50 mg oral TIW
[8] = po, 50 mg, Day 22 (Dose 10), 50 mg oral TIW

C[C@H](NC(=O)CCC(F)(F)F)C(=O)N[C@@H]1C(=O)N(CCO)c2ncccc2-c2ccccc21 [Crenigacestat, crenigacestat]
Serious adverse events (SAEs), discontinuation or death due to an AE ([1]; both treatment arms, on treatment or within 30 days of discontinuation): no patients who reported any serious adverse events (SAEs), discontinued study treatment due to an adverse event (AEs) or SAE, or died due to an AE | Recommended dose in Japanese patients ([1]; human, in vivo, po, 28 days): 50 mg | Complete or partial response to the treatment ([2]; 25 mg and 50 mg oral TIW, all patients): None of the patients had a complete or partial response; also recorded: no partial or complete responses | Best overall response: Complete response (CR) ([2]; 25 mg oral TIW (n = 4)): 0 n (%) | Best overall response: Partial response (PR) ([2]; 25 mg oral TIW (n = 4)): 0 n (%) | Best overall response: Progressive disease ([2]; 25 mg oral TIW (n = 4)): 4 (100.0) n (%) | Disease control rate (CR/PR/SD) ([2]; 25 mg oral TIW (n = 4)): 0 n (%) | Best overall response: Complete response (CR) ([2]; 50 mg oral TIW (n = 7)): 0 n (%) | Best overall response: Partial response (PR) ([2]; 50 mg oral TIW (n = 7)): 0 n (%) | Best overall response: Progressive disease ([2]; 50 mg oral TIW (n = 7)): 6 (85.7) n (%) | Disease control rate (CR/PR/SD) ([2]; 50 mg oral TIW (n = 7)): 1 (14.3) n (%) | Duration of stable disease ([2]; one patient with a desmoid tumor, 50-mg treatment arm): 22.5 months and 22.47 months | Tumor size shrinkage ([2]; one patient with a desmoid tumor, 50-mg treatment arm, first 8 cycles): 22.4% and 22.37% | AUC(0-inf) ([3]; Day 1 (Dose 1), 25 mg oral TIW): 1480 ng·h/mL | AUC(0-inf) ([3]; Day 1 (Dose 1), 50 mg oral TIW): 3080 ng·h/mL | Tmax ([3]; oral, postdose, each dose level, read-out: Median time to maximum plasma concentration (tmax)): ~2 h | half-life ([3]; po, 25 mg and 50 mg oral TIW, read-out: Mean t1/2 (converted)): ~4 h | Cmax [3, 5]: 324 ng/mL | AUC(0-t) [3, 5]: 1480 ng·h/mL | Tmax ([3]; po, 25 mg, Day 1 (Dose 1), 25 mg oral TIW, read-out: tmax, median (range)): 1.92 h | half-life ([3]; po, 25 mg, Day 1 (Dose 1), 25 mg oral TIW, read-out: t½, geometric mean (range) (converted)): 3.64 h | Cmax [3, 6]: 429 ng/mL | AUC(0-t) [3, 6]: 2070 ng·h/mL | Tmax ([3]; po, 25 mg, Day 22 (Dose 10), 25 mg oral TIW, read-out: tmax, median (range)): 1.88 h | half-life ([3]; po, 25 mg, Day 22 (Dose 10), 25 mg oral TIW, read-out: t½, geometric mean (range) (converted)): 4.19 h | Cmax [3, 7]: 670 ng/mL | AUC(0-t) [3, 7]: 3080 ng·h/mL | Tmax ([3]; po, 50 mg, Day 1 (Dose 1), 50 mg oral TIW, read-out: tmax, median (range)): 1.93 h | half-life ([3]; po, 50 mg, Day 1 (Dose 1), 50 mg oral TIW, read-out: t½, geometric mean (range) (converted)): 3.89 h | Cmax [3, 8]: 416 ng/mL | AUC(0-t) [3, 8]: 2090 ng·h/mL | Tmax ([3]; po, 50 mg, Day 22 (Dose 10), 50 mg oral TIW, read-out: tmax, median (range)): 1.94 h | half-life ([3]; po, 50 mg, Day 22 (Dose 10), 50 mg oral TIW, read-out: t½, geometric mean (range) (converted)): 3.67 h | Recommended phase 2 dose, monotherapy [4]: 50 mg
